Experimental data as given in patent US20060223875A1, “Methods and compositions for production, formulation and use of 1-aryl-3-azabicyclo[3.1.0]hexanes” (priority 2005, published 2006).
Like-named read-outs stand apart in the source and are kept apart here.

Tests used:
[1] = target: serotonin (5-HT) transporter (Rattus norvegicus, UniProt P31652); test: Inhibition of [3H]5-HT uptake in rat whole brain synaptosomes; type: biochemical
Protocol: (§1) The effects of 1-aryl-3-azabicyclo[3.1.0]hexanes of the invention for inhibiting transport of norepinephrine (NE) and/or dopamine (DA) and/or serotonin (5-HT) were evaluated using preparations of synaptosomes from different regions of the rat brain according to previously-reported techniques (Perovic and Muller, 1995, Janowsky et al., 1986). The subject assay methods are art-accepted models for generally assessing and predicting activities of drugs that modulate biogenic amine transport in mammals.
(§2) Whole brains were obtained from normal rats, and synaptosomal preparations were made from either whole brain (5-HT), striatum (DA) or hypothalamus (NE) by gentle disruption in 10 volumes (w/v) of 0.32 M sucrose (0-4° C.) using a Teflon-glass homogenizer. The homogenate was then centrifuged at 1000×g for 10 min. The supernatant was retained and centrifuged at 23000 g for 20 min. The resulting pellet was gently resuspended in 200 volumes of 0.32 M sucrose (0-4° C.) using a teflon-glass homogenizer. Aliquots (250 μL) of this preparation were added to tubes, along with 0.2 μCi/mL of [^3H]5-HT, [^3H]DA, or [^3H]NE, 200 μL of selected 1-aryl-3-azabicyclo[3.1.0]hexane test compounds (to yield final concentrations of 100 nM, 300 nM, 1 μM, 3 μM, 10 μM, 30 μM or 100 μM) and 1 mL of Krebs-Ringer bicarbonate buffer (pH 7.4). The mixtures were incubated for either 15 (DA and 5-HT uptake) or 20 (NE uptake) minutes at 37° C. At the end of this period, the assay was terminated by rapid filtration over Whatman GF/C glass fiber filters. The filters were rinsed 3 times with 4 ml of Krebs-Ringer bicarbonate buffer (0-4° C.), and the radioactivity retained on the filters was measured by liquid scintillation spectrometry. The results of these assays are shown in Table 3, below, which indicates, for each of the exemplary, aza-substituted compounds, the structure of the substituent, and levels of observed uptake inhibition for each of the indicated neurotransmitters. Also provided in the table is a multi-target “inhibition profile”, expressing a ratio of observed inhibition for each of the aza-substituted bicifadine across a panel of the three indicated neurotransmitters.

[2] = target: norepinephrine (NE) transporter (Rattus norvegicus, UniProt Q9WTR4); test: Inhibition of [3H]NE uptake in rat hypothalamus synaptosomes; type: biochemical
Protocol: as §1, §2

[3] = target: dopamine (DA) transporter (Rattus norvegicus, UniProt P23977); test: Inhibition of [3H]DA uptake in rat striatum synaptosomes; type: biochemical
Protocol: as §1, §2

[4] = test system: reuptake of norepinephrine, serotonin, and dopamine; conditions: cited from earlier work
[5] = orally administered single dose; 150 mg bicifadine, 650 mg aspirin; cited from earlier work
[6] = dental surgery patients; cited from earlier work
[7] = rat whole brain synaptosomes, [3H]5-HT, 15 min, 37° C., read-out: Inhibition of 5-HT Uptake (IC50)
[8] = rat hypothalamus synaptosomes, [3H]NE, 20 min, 37° C., read-out: Inhibition of NE Uptake (IC50)
[9] = rat striatum synaptosomes, [3H]DA, 15 min, 37° C., read-out: Inhibition of DA Uptake (IC50)

norepinephrine (NE) transporter, sequence (Q9WTR4 1-597): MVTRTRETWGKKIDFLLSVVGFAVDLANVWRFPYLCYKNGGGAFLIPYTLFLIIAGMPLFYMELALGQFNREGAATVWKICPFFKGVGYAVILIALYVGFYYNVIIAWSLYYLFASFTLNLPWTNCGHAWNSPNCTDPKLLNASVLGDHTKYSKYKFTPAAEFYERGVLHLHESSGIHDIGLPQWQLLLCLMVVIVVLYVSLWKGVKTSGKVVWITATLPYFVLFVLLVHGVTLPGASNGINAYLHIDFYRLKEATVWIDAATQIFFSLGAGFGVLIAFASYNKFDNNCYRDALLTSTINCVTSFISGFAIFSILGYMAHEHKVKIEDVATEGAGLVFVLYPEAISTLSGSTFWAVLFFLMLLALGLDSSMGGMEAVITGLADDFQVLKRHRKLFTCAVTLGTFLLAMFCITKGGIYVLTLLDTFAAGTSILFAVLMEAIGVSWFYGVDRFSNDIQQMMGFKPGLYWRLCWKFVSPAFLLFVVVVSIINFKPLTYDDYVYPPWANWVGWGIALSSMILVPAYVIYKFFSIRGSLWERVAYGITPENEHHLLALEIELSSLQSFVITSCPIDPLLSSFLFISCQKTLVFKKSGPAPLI
dopamine (DA) transporter, sequence (P23977 whole entry): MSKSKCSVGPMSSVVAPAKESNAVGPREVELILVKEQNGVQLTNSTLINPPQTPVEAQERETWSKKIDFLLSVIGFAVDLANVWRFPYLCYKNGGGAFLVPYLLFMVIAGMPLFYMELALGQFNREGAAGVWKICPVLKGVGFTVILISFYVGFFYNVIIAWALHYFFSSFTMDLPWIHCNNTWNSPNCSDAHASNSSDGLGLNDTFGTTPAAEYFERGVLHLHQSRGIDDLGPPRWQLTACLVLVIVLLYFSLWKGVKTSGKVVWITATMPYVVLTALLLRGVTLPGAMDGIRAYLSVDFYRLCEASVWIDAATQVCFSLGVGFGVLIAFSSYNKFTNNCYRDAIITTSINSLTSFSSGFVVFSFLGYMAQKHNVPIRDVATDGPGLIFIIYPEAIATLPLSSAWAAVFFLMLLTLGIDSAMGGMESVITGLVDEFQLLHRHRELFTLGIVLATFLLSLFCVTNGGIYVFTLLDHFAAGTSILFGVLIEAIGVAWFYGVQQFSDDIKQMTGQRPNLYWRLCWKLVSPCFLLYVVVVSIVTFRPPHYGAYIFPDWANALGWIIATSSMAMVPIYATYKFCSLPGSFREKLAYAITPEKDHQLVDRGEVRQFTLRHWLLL
serotonin (5-HT) transporter, sequence (P31652 whole entry): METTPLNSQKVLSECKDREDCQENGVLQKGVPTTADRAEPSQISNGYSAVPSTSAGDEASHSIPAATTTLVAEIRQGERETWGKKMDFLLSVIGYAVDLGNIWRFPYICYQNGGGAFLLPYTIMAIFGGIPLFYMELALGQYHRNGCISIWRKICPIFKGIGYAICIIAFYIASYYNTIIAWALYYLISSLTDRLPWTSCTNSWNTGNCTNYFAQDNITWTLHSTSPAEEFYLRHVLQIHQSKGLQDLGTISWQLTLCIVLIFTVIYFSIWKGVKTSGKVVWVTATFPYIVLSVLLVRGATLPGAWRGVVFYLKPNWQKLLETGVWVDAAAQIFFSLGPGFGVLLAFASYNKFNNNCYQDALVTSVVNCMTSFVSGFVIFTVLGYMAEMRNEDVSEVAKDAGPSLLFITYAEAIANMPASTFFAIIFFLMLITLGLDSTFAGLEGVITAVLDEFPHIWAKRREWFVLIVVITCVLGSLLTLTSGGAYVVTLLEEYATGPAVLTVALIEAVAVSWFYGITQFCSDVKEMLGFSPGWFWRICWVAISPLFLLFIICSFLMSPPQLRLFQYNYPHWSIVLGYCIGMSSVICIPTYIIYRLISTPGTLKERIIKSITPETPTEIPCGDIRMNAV

SMILES	IC50 [1, 7] [nM]	IC50 [2, 8] [nM]	IC50 [3, 9] [nM]	other results
CN1CC2CC2(c2cccc(Cl)c2)C1 (stereo not shown) [CH3,3-Cl, 1-(3-Chlorophenyl)-3-methyl-3-aza-bicyclo[3.1.0]hexane]				IC50 [1]: 270 nM; IC50 [2]: 83 nM; IC50 [3]: 1300 nM
Cc1ccc(C23CC2CN(C(C)(C)C)C3)cc1 (stereo not shown) [t-C4H9,4-CH3]	7600	2700	7300	
CCN1CC2CC2(c2ccc(C)cc2)C1 (stereo not shown) [C2H5,4-CH3, 3-Ethyl-1-p-tolyl-3-aza-bicyclo[3.1.0]hexane]				IC50 [1]: 240 nM; IC50 [2]: < 100 nM; IC50 [3]: < 100 nM
CCCN1CC2CC2(c2ccc(C)cc2)C1 (stereo not shown) [n-C3H7,4-CH3, 3-Propyl-1-p-tolyl-3-aza-bicyclo[3.1.0]hexane]	760	1400	2700	
CN1CC2CC2(c2ccc(F)cc2)C1 (stereo not shown) [CH3,4-F, 1-(4-Fluorophenyl)-3-methyl-3-aza-bicyclo[3.1.0]hexane]				IC50 [1]: 3400 nM; IC50 [2]: 170 nM; IC50 [3]: 3800 nM
CN1CC2CC2(c2ccc(C(F)(F)F)cc2)C1 (stereo not shown) [CH3,4-CF3, 3-Methyl-1-(4-trifluoromethylphenyl)-3-aza-bicyclo[3.1.0]hexane]	130	2600		
CN1CC2CC2(c2ccc(CN)cc2)C1 (stereo not shown) [CH3,4-CH2NH2, (4-(3-Methyl-3-aza-bicyclo[3.1.0]hexan-1-yl)phenyl)methanamine]	7400		8500	
COCCN1CC2CC2(c2ccc(C)cc2)C1 (stereo not shown) [C3H7O, 4-CH3, 3-(2-Methoxyethyl)-1-p-tolyl-3-aza-bicyclo[3.1.0]hexane]	8000	6500	10000	
Cl.Clc1ccc(C23CNCC2C3)cc1Cl (stereo not shown) [1-(3,4-dichlorophenyl)-3-azabicyclo[3.1.0]hexane hydrochloride]				inhibition of reuptake of norepinephrine, serotonin, and dopamine [4]: inhibit reuptake of all three of these biogenic amines
Cc1ccc(C23CC2CN(CC(F)(F)F)C3)cc1 (stereo not shown) [C2H2F3,4-CH3]	25000		48000	
Cc1ccc(C23CC2CN(C)C3)cc1 (stereo not shown) [CH3,4-CH3, 3-Methyl-1-p-tolyl-3-aza-bicyclo[3.1.0]hexane]				IC50 [1]: 190 nM; IC50 [2]: 150 nM; IC50 [3]: 960 nM
Cc1ccc(C23CC2CN(C(C)C)C3)cc1 (stereo not shown) [i-C3H7,4-CH3, 3-Isopropyl-1-p-tolyl-3-aza-bicyclo[3.1.0]hexane]	170	230	610	
CC(=O)Oc1ccccc1C(=O)O [aspirin]				analgesic activity compared to placebo [5]: Significant analgesic activity
Cc1ccc(C23CNCC2C3)cc1.Cl (stereo not shown) [bicifadine, 1-p-Tolyl-3-aza-bicyclo[3.1.0]hexane hydrochloride, reference compound]	130	130	1300	analgesic activity compared to placebo [5]: Significant analgesic activity; analgesia relative to codeine and tramadol [6]: analgesia comparable to the narcotic, codeine and the narcotic-like agent tramadol
